PMC11032351, “Epigenetic modulation through BET bromodomain inhibitors as a novel therapeutic strategy for progranulin-deficient frontotemporal dementia” (Scientific Reports, 2024)

Key:
PGRN protein levels [1] = assay: Immunoblotting of PGRN protein in human NPCs; type: cell-based; conditions: 24 h, immunoblot
Protocol: (§1) All compounds were purchased from commercial vendors. All compounds were made at 1000 × stocks in DMSO (Sigma Aldrich #D2438), except for sodium valproate, which was dissolved in ddH2O. NPCs and neurons were generated and maintained as described above. For treatment, the stock compounds were diluted 1:1000 in NPC media (final DMSO concentration 0.1%), which was then applied to confluent NPCs or 18-day differentiated neurons derived from confluent NPC cultures for indicated time periods.
(§2) Cell pellets were collected from each well of a 6-well plate (or lysed directly in-well for 24-well plates), lysed in radio immunoprecipitation assay (RIPA) buffer (Boston BioProducts #BP-115) with EDTA-free protease inhibitors (Sigma Aldrich #4,693,159,001) and a phosphatase inhibitor cocktail (Sigma Aldrich #P5726) and nutated at 4 °C for 15–30 min. Lysates were clarified via centrifugation at > 14,000 rcf at 4 °C for > 10 min and the supernatants were collected. Protein quantification was done with the Pierce bicinchoninic assay (BCA) (Thermo Fisher #23,227). Lysates were then stored between − 20 and − 80 °C until ready for use. […]
(§3) In probing for PGRN, proteins were separated on NuPAGE 4–12% Bis–Tris gels (ThermoFisher #NP0335BOX) in MOPS SDS Running buffer (ThermoFisher #NP0001). […] Protein quantification was done with ImageJ and normalized to GAPDH.

GRN mRNA = assay: qPCR of GRN mRNA in human NPCs (enhancer screen and follow-up); type: cell-based; conditions: 24 h; for increase of GRN mRNA: NPCs
Protocol: as §1
RNA was generated from each well of a 6-well treated plate of NPCs or neurons. First, media from each well was aspirated, and washed with 1 mL of dPBS. Wells were then lysed with 1 mL TRIzol Reagent (ThermoFisher #11,596,026). Wells were then incubated at room temperature for 5 min, and then RNA was extracted using the DirectZol RNA MiniPrep Kit (Zymo Research #R2052). RNA was stored at − 80 °C until further use. cDNA was generated using the High-Capacity cDNA synthesis Kit with RNase inhibitor (ThermoFisher #4,368,814) using 1000–1200 ng RNA per reaction. cDNA was either used immediately or stored at -20 °C until use, where it was then diluted 1:4 with DNase/RNase-free water (Invitrogen #10,977–015).
qPCR was conducted using the Roche 480 Light Cycler in a 384-well plate. To each well was added 5 μL of TaqMan 2X Gene Expression Master Mix (ThermoFisher #4,369,510), 0.5 μL of 20X TaqMan primer probe (ThermoFisher, GRN: Hs00963707_g1, GAPDH: Cat.#432924E), 0.5 μL of DNase/RNase-free H2O, and 4 μL of above diluted cDNA. Results were normalized to GAPDH, and replicate mean values and standard error of the mean are reported.

PGRN protein levels [2] = assay: Immunoblotting of PGRN protein in 18-day differentiated neurons; type: cell-based, human; conditions: 24 hours, immunoblot
Protocol: NPCs were seeded at 0.5 × 10^6 cells per well in a poly-ornithine/laminin single coated 6-well plate in 2 mL NPC media with above growth factors. Cells were allowed to incubate at 37 °C for 48–72 h to grow to confluency. After reaching confluency, the media was aspirated, and cells were incubated in NPC media without growth factors for the indicated timeframes, with media changes every 3–4 days.
All compounds were purchased from commercial vendors. All compounds were made at 1000 × stocks in DMSO (Sigma Aldrich #D2438), except for sodium valproate, which was dissolved in ddH2O. NPCs and neurons were generated and maintained as described above. […]
as §2, with “Lysates were clarified via centrifugation at > 14,000 rcf at 4 °C for > 10 min and the supernatants were collected.” left out
as §3

PGRN-Luc = assay: HMC3 PGRN-luciferase reporter assay; type: cell-based, human; conditions: HMC3 PGRN-Luc cells, 20 h
Protocol: HMC3 PGRN-Luc cells were trypsinized from confluent T-75 flasks and re-suspended in HMC-3 media at 150,000–200,000 cells/mL. 30 µL of cell suspension was then seeded onto each well of black, 384-well clear-bottom plates (Corning 3712) using the Multidrop Combi (Thermo Fisher). Cells were allowed to adhere to plates in the incubator at 37 °C/5% CO2 for 6–8 h. After 6–8 h, compounds were added to each well using the D300e (Tecan) compound dispenser, and all wells were DMSO-normalized (0.3%). Cells were allowed to incubate with compounds for indicated timeframes.
Plates were removed from the incubator and allowed to cool to RT. 15 µL of media was removed from each well using a multichannel pipette and added to separate Corning 3712 plates for a read of “secreted” PGRN. To both the media-containing plates as well as the cell-containing plates (with 15 µL media remaining) is then added 15 µL of active luminescence reagent (Thermo 18,636) which was generated according to manufacturer’s instructions. Plates were allowed to nutate at RT for 15 min prior to reading using the EnVision (PerkinElmer). For calculation of the internal PGRN-Luc signal, the secreted signal (15 µL media) was subtracted from the signal of the cell-containing plates (with 15 µL media remaining). For “total” PGRN-Luc signal, a sample of media was not aliquoted into a separate plate, and instead, 30 µL of active luminescence reagent was added directly to each well.
For the mivebresib and panobinostat time-course experiment, the above procedure was followed, with the exception that cells were seeded at 66,600 cells/mL in 30 µL media, and allowed to grow overnight prior to compound addition for the indicated timeframes.

PGRN protein levels [3] = assay: PGRN quantification (Jess) in GRN R493X/+ 14-day differentiated neurons; type: cell-based, human; conditions: GRN R493X/+ 14-day growth factor differentiated neurons, 24 h
Protocol: (§4) PGRN capillary gel electrophoresis experiments were performed using Jess (Bio-Techne) and data were processed and analyzed using Compass for Simple Western software (version 6.0). Runs were conducted using EZ Standard Pack 1 12–230 kDa (Bio-Techne PS-ST01EZ-8), 12–230 kDa pre-filled plates (PS-PP03), 12–230 kDa separation module (SMW004), anti-rabbit HRP detection (DM-001), RePlex (RP-001), and total protein detection modules (DM-TP01, biotin labeling reagent 042-973) according to the manufacturer’s instructions, and with anti-PGRN primary (Abcam ab208777) diluted 1:50 in milk-free antibody dilution buffer (043–524). The following run settings were used for each experiment: separation time: 25 min, separation voltage: 375 V, RePlex purge time: 30 min, biotin labeling time: 30 min, antibody diluent time: 5 min, primary antibody time: 30 min, secondary antibody time: 30 min, total protein HRP time: 30 min. All intensity quantifications are normalized to the total protein assay quantification unless otherwise indicated.
(§5) For GRN^R493^X/+ NPCs, cells were grown to confluency in 6-well plates according to the above NPC culturing procedure. To each well was directly added 2 µL of 100 µM panobinostat, […], or DMSO only to produce final in-well concentrations of 100 nM or 1 µM, respectively (0.1% DMSO final concentration). […]

PGRN protein levels [4] = assay: PGRN quantification (Jess) in GRN R493X/+ NPCs; type: cell-based, human; conditions: 24 h
Protocol: as §4, §5

In the case of `Cc1sc2c(c1C)C(c1ccc(Cl)cc1)=N[C@@H](CC(=O)OC(C)(C)C)c1nnc(C)n1-2` [(+)-JQ1], the PGRN protein levels (PGRN protein levels [1]; 1 µM) is reported as “substantially increased PGRN protein levels”, the “increase of GRN mRNA” value (GRN mRNA; 1 µM) is reported as ~ 2.5 fold and the PGRN expression (PGRN protein levels [2]; 1 µM) is reported as “can enhance PGRN expression”.
With `COc1ccccc1S(=O)(=O)Nc1ccc2c(c1)CN(C)C(=O)N2` [PFI-1] the PGRN protein levels (PGRN protein levels [1]; 10 µM) was “substantially increased PGRN protein levels”, the “increase of GRN mRNA” value (GRN mRNA; 10 µM) was ~ 2.5 fold and the PGRN expression (PGRN protein levels [2]; 10 µM) was “can enhance PGRN expression”.
For `Cc1[nH]c2ccccc2c1CCNCc1ccc(/C=C/C(=O)NO)cc1` [Panobinostat, panobinostat], the “enhancement of internal PGRN-Luc signal” value (PGRN-Luc) was “able to enhance both internal and secreted PGRN at sub-µM concentrations”, the “enhancement of secreted PGRN-Luc signal” value (PGRN-Luc) was “able to enhance both internal and secreted PGRN at sub-µM concentrations” and the “GRN Fold-change (Norm. to GAPDH) ± Std. Error” value (GRN mRNA; human NPCs, dose 1 µM, relative to DMSO) was 3.08 ± 0.35. For the same compound, the PGRN protein levels (PGRN protein levels [3]) was “rescues PGRN haploinsufficiency” and the PGRN protein levels (PGRN protein levels [4]) was “rescues PGRN haploinsufficiency”.
